# From PubChem BioAssay (NCI)
#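 Tested at 5 concentrations; 48 h exposure; 96-well plates; endpoints linearly interpolated, else capped at highest concentration. The concentration for 50% growth inhibition is given as GI50. TGI: total growth inhibition.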 *1 amine or outer side, *2 acyl side, *3 side chain or, on linkers, in order; H or OH if unused. Where a SMILES comes first, the peptide text is derived from it. [ ]: non-standard residue; d: D form. The star is where a group is joined. X11 = C/C=C/CC(C)C(O)[C@H](N[*:1])C(=O)[*:2]; Decanoyl = CCCCCCCCCC(=O)*; Leu(ol) = CC(C)C[C@H](N)CO; Iva = CC[C@](C)(N)C(=O)O; Aib = CC(C)(N)C(=O)O
# Key:
# Test in all cases: NCI tumour cell line growth inhibition, 48 h
# HCT-15 colon = test system: HCT-15 colon
# NCI/ADR-RES ovarian = test system: NCI/ADR-RES ovarian
# U251 CNS = test system: U251 CNS
# MDA-MB-231 breast = test system: MDA-MB-231 breast
# SW-620 colon = test system: SW-620 colon
# NCI-H23 lung = test system: NCI-H23 lung
# COLO 205 colon = test system: COLO 205 colon
# MOLT-4 leukemia = test system: MOLT-4 leukemia
# UO-31 renal = test system: UO-31 renal
# DU-145 prostate = test system: DU-145 prostate
# SF-539 CNS = test system: SF-539 CNS
# KM12 colon = test system: KM12 colon
# HL-60(TB) leukemia = test system: HL-60(TB) leukemia
# UACC-62 melanoma = test system: UACC-62 melanoma
# NCI-H522 lung = test system: NCI-H522 lung
# CCRF-CEM leukemia = test system: CCRF-CEM leukemia
# A549 NSCLC = test system: A549 NSCLC
# IGROV1 ovarian = test system: IGROV1 ovarian
# SK-OV-3 ovarian = test system: SK-OV-3 ovarian
# ACHN renal = test system: ACHN renal
# A498 renal = test system: A498 renal
# K-562 leukemia = test system: K-562 leukemia
# HT29 colon = test system: HT29 colon
# EKVX NSCLC = test system: EKVX NSCLC
# OVCAR-4 ovarian = test system: OVCAR-4 ovarian
# SF-268 CNS = test system: SF-268 CNS
# SK-MEL-5 melanoma = test system: SK-MEL-5 melanoma
# OVCAR-3 ovarian = test system: OVCAR-3 ovarian
# SR leukemia = test system: SR leukemia
# SK-MEL-2 melanoma = test system: SK-MEL-2 melanoma
# RXF 393 renal = test system: RXF 393 renal
# NCI-H460 lung = test system: NCI-H460 lung
# HS 578T breast = test system: HS 578T breast
# OVCAR-5 ovarian = test system: OVCAR-5 ovarian
# NCI-H226 lung = test system: NCI-H226 lung
# PC-3 prostate = test system: PC-3 prostate
# MCF7 breast = test system: MCF7 breast
# HOP-92 NSCLC = test system: HOP-92 NSCLC
# RPMI-8226 leukemia = test system: RPMI-8226 leukemia
# LOX IMVI melanoma = test system: LOX IMVI melanoma
# UACC-257 melanoma = test system: UACC-257 melanoma
# T-47D breast = test system: T-47D breast
# SNB-19 CNS = test system: SNB-19 CNS
# MALME-3M melanoma = test system: MALME-3M melanoma
# 786-0 renal = test system: 786-0 renal
# SK-MEL-28 melanoma = test system: SK-MEL-28 melanoma
# SF-295 CNS = test system: SF-295 CNS
# SNB-75 CNS = test system: SNB-75 CNS
# MDA-MB-435 = test system: MDA-MB-435
# HCC-2998 colon = test system: HCC-2998 colon
# HCT-116 colon = test system: HCT-116 colon
# TK-10 renal = test system: TK-10 renal
# BT-549 breast = test system: BT-549 breast
# M14 melanoma = test system: M14 melanoma
# HOP-62 NSCLC = test system: HOP-62 NSCLC
# CAKI-1 renal = test system: CAKI-1 renal
# SN12C renal = test system: SN12C renal
# OVCAR-8 ovarian = test system: OVCAR-8 ovarian
structure (smiles),measurement,setting,value
C/C=C/CC(C)C(O)[C@H](NC(=O)[C@@H]1CCCN1C(=O)C(C)(C)NC(=O)CCCCCCCCC)C(=O)N[C@@](C)(CC)C(=O)N[C@@H](CCC(N)=O)C(=O)N[C@H](CCC(N)=O)C(=O)NC(C)(C)C(=O)NC(C)(C)C(=O)N[C@@H](CCC(N)=O)C(=O)N[C@H](CC(C)C)C(=O)N[C@H](CO)CC(C)C (stereo partly drawn) (Decanoyl-[Aib]P[X11][Iva]Q[dQ][Aib][Aib]Q[dL][Leu(ol)]),GI50,HCT-15 colon,2.54 µM
same,TGI,HCT-15 colon,6.93 µM
same,GI50,NCI/ADR-RES ovarian,2.04 µM
same,TGI,NCI/ADR-RES ovarian,4.45 µM
same,GI50,U251 CNS,1.75 µM
same,TGI,U251 CNS,3.36 µM
same,GI50,MDA-MB-231 breast,1.71 µM
same,TGI,MDA-MB-231 breast,3.16 µM
same,GI50,SW-620 colon,2.75 µM
same,TGI,SW-620 colon,7.17 µM
same,GI50,NCI-H23 lung,2.32 µM
same,TGI,NCI-H23 lung,5.42 µM
same,GI50,COLO 205 colon,2 µM
same,TGI,COLO 205 colon,4.44 µM
same,GI50,MOLT-4 leukemia,2.33 µM
same,TGI,MOLT-4 leukemia,4.93 µM
same,GI50,UO-31 renal,1.56 µM
same,TGI,UO-31 renal,3.12 µM
same,GI50,DU-145 prostate,1.73 µM
same,TGI,DU-145 prostate,3.13 µM
same,GI50,SF-539 CNS,1.76 µM
same,TGI,SF-539 CNS,3.17 µM
same,GI50,KM12 colon,1.95 µM
same,TGI,KM12 colon,3.94 µM
same,GI50,HL-60(TB) leukemia,1.93 µM
same,TGI,HL-60(TB) leukemia,4.12 µM
same,GI50,UACC-62 melanoma,1.75 µM
same,TGI,UACC-62 melanoma,3.38 µM
same,GI50,NCI-H522 lung,1.7 µM
same,TGI,NCI-H522 lung,3.36 µM
same,GI50,CCRF-CEM leukemia,2.04 µM
same,TGI,CCRF-CEM leukemia,4.4 µM
same,GI50,A549 NSCLC,3.02 µM
same,TGI,A549 NSCLC,9.38 µM
same,GI50,IGROV1 ovarian,2.34 µM
same,TGI,IGROV1 ovarian,6.31 µM
same,GI50,SK-OV-3 ovarian,3.85 µM
same,TGI,SK-OV-3 ovarian,8.71 µM
same,GI50,ACHN renal,2.45 µM
same,TGI,ACHN renal,6.09 µM
same,GI50,A498 renal,1.94 µM
same,TGI,A498 renal,3.68 µM
same,GI50,K-562 leukemia,1.95 µM
same,TGI,K-562 leukemia,4 µM
same,GI50,HT29 colon,2.41 µM
same,TGI,HT29 colon,5.68 µM
same,GI50,EKVX NSCLC,1.85 µM
same,TGI,EKVX NSCLC,3.77 µM
same,GI50,OVCAR-4 ovarian,3.91 µM
same,TGI,OVCAR-4 ovarian,9.05 µM
same,GI50,SF-268 CNS,1.83 µM
same,TGI,SF-268 CNS,3.56 µM
same,GI50,SK-MEL-5 melanoma,1.79 µM
same,TGI,SK-MEL-5 melanoma,3.3 µM
same,GI50,OVCAR-3 ovarian,2.02 µM
same,TGI,OVCAR-3 ovarian,4.35 µM
same,GI50,SR leukemia,1.37 µM
same,TGI,SR leukemia,3.07 µM
same,GI50,SK-MEL-2 melanoma,1.81 µM
same,TGI,SK-MEL-2 melanoma,3.49 µM
same,GI50,RXF 393 renal,2.15 µM
same,TGI,RXF 393 renal,4.01 µM
same,GI50,NCI-H460 lung,1.86 µM
same,TGI,NCI-H460 lung,3.45 µM
same,GI50,HS 578T breast,1.78 µM
same,TGI,HS 578T breast,3.49 µM
same,GI50,OVCAR-5 ovarian,1.73 µM
same,TGI,OVCAR-5 ovarian,3.29 µM
same,GI50,NCI-H226 lung,2.07 µM
same,TGI,NCI-H226 lung,4.56 µM
same,GI50,PC-3 prostate,1.84 µM
same,TGI,PC-3 prostate,3.65 µM
same,GI50,MCF7 breast,1.81 µM
same,TGI,MCF7 breast,3.51 µM
same,GI50,HOP-92 NSCLC,1.84 µM
same,TGI,HOP-92 NSCLC,4.08 µM
same,GI50,RPMI-8226 leukemia,2.05 µM
same,TGI,RPMI-8226 leukemia,4.51 µM
same,GI50,LOX IMVI melanoma,1.73 µM
same,TGI,LOX IMVI melanoma,3.3 µM
same,GI50,UACC-257 melanoma,1.77 µM
same,TGI,UACC-257 melanoma,3.37 µM
same,GI50,T-47D breast,2.31 µM
same,TGI,T-47D breast,5.95 µM
same,GI50,SNB-19 CNS,1.7 µM
same,TGI,SNB-19 CNS,3.15 µM
same,GI50,MALME-3M melanoma,1.56 µM
same,TGI,MALME-3M melanoma,2.96 µM
same,GI50,786-0 renal,1.81 µM
same,TGI,786-0 renal,3.35 µM
same,GI50,SK-MEL-28 melanoma,1.76 µM
same,TGI,SK-MEL-28 melanoma,3.16 µM
same,GI50,SF-295 CNS,1.76 µM
same,TGI,SF-295 CNS,3.32 µM
same,GI50,SNB-75 CNS,1.48 µM
same,TGI,SNB-75 CNS,2.98 µM
same,GI50,MDA-MB-435,1.68 µM
same,TGI,MDA-MB-435,3.05 µM
same,GI50,HCC-2998 colon,2.16 µM
same,TGI,HCC-2998 colon,4.63 µM
same,GI50,HCT-116 colon,2.41 µM
same,TGI,HCT-116 colon,6.09 µM
same,GI50,TK-10 renal,2.13 µM
same,TGI,TK-10 renal,4.93 µM
same,GI50,BT-549 breast,1.98 µM
same,TGI,BT-549 breast,3.67 µM
same,GI50,M14 melanoma,1.81 µM
same,TGI,M14 melanoma,3.44 µM
same,GI50,HOP-62 NSCLC,1.99 µM
same,TGI,HOP-62 NSCLC,4.06 µM
same,GI50,CAKI-1 renal,2.13 µM
same,TGI,CAKI-1 renal,5.02 µM
same,GI50,SN12C renal,2.17 µM
same,TGI,SN12C renal,4.92 µM
same,GI50,OVCAR-8 ovarian,1.84 µM
same,TGI,OVCAR-8 ovarian,3.99 µM
